Reference: patent US6949648B2, “Condensed pyrazole derivatives, process for producing the same and use thereof” (Takeda Pharmaceutical Company Limited, priority 2000, dated 2005)
Marks after values point to notes of the source that are not given here.

System: adjuvant arthritis
Assay: Anti-adjuvant-arthritic activity
Assay type: in vivo, SD rats
Conditions: 10 mg/kg orally once a day for 14 days; volume of left hind limb (not injected); day of reading not given
Method: Anti-Adjuvant-Arthritic Activity
Male SD origin male-rats (6 weeks old, CLEA Japan, 1 group: n=7) were used. The adjuvant arthritis method was conducted according to the method of Newbould B. B. et. al., (Brit. J. Pharmacol. Chemother., vol. 21, p. 127, 1963). Complete Freund's adjuvant (a suspension of killed tubercule bacillus in liquid paraffin at a concentration of 0.5%, 0.05 mL) was injected into the right hind limb footpad intracutaneouly to induce multiple arthritis. Samples were administered orally (10 mg/kg, b.w.), once a day for 14 days from the day before the injection day 0 to day 13. Volume of the left hind limb (not injected) was determined by the foot-volume measurement apparatus manufactured by Ugo Basile, on the day just before the adjuvant shot (Day 0), Day 10 and Day 14, and repression rate (%) was calculated comparing the values between the sample group and the control group.

Compound: CCCOc1c2ccccc2nc2c1c(C)nn2-c1ccccn1 [Example 2-17, 3-Methyl-4-propoxy-1-(2-pyridinyl)-1H-pyrazolo[3,4-b]quinoline]
- Repression rate (%) Dosage 10 mg/kg: 61* %
